“Also recorded” adds a separate entry of the source. Read-outs that look alike come from different tables or passages of the source. One block for each compound: values may come before it.
Assays:
[1] = system: LNCaP cell line; parameters: method as in PMID 29246854; settings: 48 h of exposure to 10 μM; cited from earlier work
[2] = system: Vero (Cercopithecus aethiops kidney); experiment: MTT-based viability assay, Vero; assay type: cell-based; settings: Chlorocebus sabaeus, 48 h, read-out: IC50 [µM] Vero
Method: (§1) 3. The cytotoxicity of the newly obtained inhibitors, i.e., 1, 2, and 4 was tested towards four cell lines, i.e., CCRF-CEM (acute lymphoblastic leukemia ALL), MCF-7 (breast carcinoma), MDA-MB-231 (triple negative breast carcinoma), and Vero (Cercopithecus aethiops kidney).
(§2) The CCRF-CEM (acute lymphoblastic leukemia, ALL) and MDA-MB-231 (triple-negative breast adenocarcinoma) cell lines were obtained from the European Collection of Authenticated Cell Cultures (ECACC), while the MCF-7 (hormone-dependent breast adenocarcinoma) and Vero (Cercopithecus aethiops kidney) cell lines were purchased from the American Type Culture Collection (ATCC, Manassas, VA, USA). CCRF-CEM cells were maintained in RPMI-1640 medium, whereas MCF-7 and MDA-MB-231 cells were cultured in DMEM (Sigma-Aldrich Chemical Company, St. Louis, MO, USA). Vero cells were cultured in minimum essential medium eagle (MEM; Sigma-Aldrich). All media were supplemented with 10% fetal bovine serum (FBS), 2 mM L-glutamine, and antibiotics (100 U/mL penicillin and 100 µg/mL streptomycin) (Sigma-Aldrich). Cells were grown in 75-cm^2 culture flasks (Googlab Scientific, Rakocin, Poland) in a humidified atmosphere containing 5% CO2 at 37 °C. All experiments were performed using exponentially growing cultures. Stock solutions of the test compounds were prepared in DMSO and stored at –80 °C for up to one month.
(§3) Following incubation with the tested compounds, the MTT assay was carried out as previously described. Optical density was measured at 570 nm using a BioTek microplate reader (Winooski, VT, USA). All measurements were performed in at least three independent biological replicates.

[3] = system: CCRF-CEM (acute lymphoblastic leukemia); experiment: MTT-based viability assay, CCRF-CEM; assay type: cell-based, human; settings: for IC50: Homo sapiens, CCRF-CEM, 48 h, read-out: IC50 [µM] CCRF-CEM; for SI (selectivity index) CCRF-CEM: IC50 for Vero/IC50 for cancer cells
Method: as §1, §2, §3

[4] = molecular target: T1, PIM-1 kinase (Homo sapiens, UniProt P11309); experiment: radiometric P81 filter isotopic kinase assay, PIM-1; assay type: biochemical; settings: for remaining activity at 2 µM: cpd. concentration 2 μM; for remaining activity at 2 µM / remaining activity at 5 µM / remaining activity at 20 µM: read-out: PIM-1 Residual Activity [%]; for remaining activity at 5 µM: cpd. concentration 5 μM; for remaining activity at 20 µM: cpd. concentration 20 μM
T1 construct: made in house
T1 sequence (P11309 whole entry): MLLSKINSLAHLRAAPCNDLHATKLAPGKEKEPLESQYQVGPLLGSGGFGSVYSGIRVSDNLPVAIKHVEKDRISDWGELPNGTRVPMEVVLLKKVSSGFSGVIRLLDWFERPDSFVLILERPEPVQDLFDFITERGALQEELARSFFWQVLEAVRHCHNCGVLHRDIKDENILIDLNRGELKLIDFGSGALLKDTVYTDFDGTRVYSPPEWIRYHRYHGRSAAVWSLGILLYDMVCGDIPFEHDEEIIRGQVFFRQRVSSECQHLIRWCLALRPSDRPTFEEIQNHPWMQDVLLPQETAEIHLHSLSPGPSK
Method: (§4) Synthetic peptide […] served as the substrate for CK2, while peptide […] was used as the substrate for PIM-1.
(§5) The synthesized compounds were evaluated for their inhibitory activity against human CK2α, the human CK2 holoenzyme, and PIM-1 using the P81 filter-based isotopic assay, as previously described. […] The experimental data were fitted to a dose–response curve using non-linear regression analysis (variable slope) Y = Bottom + (Top − Bottom)/(1 + 10^((LogIC50 − X) × HillSlope) equation in GraphPad Prism (Prism 9, version 9.0.1).

[5] = system: MCF-7 (breast carcinoma); experiment: MTT-based viability assay, MCF-7; assay type: cell-based, human; settings: for IC50: Homo sapiens, read-out: IC50 [µM] MCF-7; for SI (selectivity index) MCF-7: IC50 for Vero/IC50 for cancer cells
Method: as §1, §2, §3

[6] = molecular target: T2, recombinant human CK2 catalytic subunit (rhCK2α) (Homo sapiens, UniProt P68400); experiment: radiometric P81 filter isotopic kinase assay, CK2α; assay type: biochemical; settings: for remaining activity at 2 µM: cpd. concentration 2 μM; for remaining activity at 2 µM / remaining activity at 5 µM / remaining activity at 20 µM: read-out: CK2α Residual Activity [%]; for remaining activity at 5 µM: cpd. concentration 5 μM; for remaining activity at 20 µM: cpd. concentration 20 μM
T2 construct: made in house
T2 sequence (P68400 whole entry): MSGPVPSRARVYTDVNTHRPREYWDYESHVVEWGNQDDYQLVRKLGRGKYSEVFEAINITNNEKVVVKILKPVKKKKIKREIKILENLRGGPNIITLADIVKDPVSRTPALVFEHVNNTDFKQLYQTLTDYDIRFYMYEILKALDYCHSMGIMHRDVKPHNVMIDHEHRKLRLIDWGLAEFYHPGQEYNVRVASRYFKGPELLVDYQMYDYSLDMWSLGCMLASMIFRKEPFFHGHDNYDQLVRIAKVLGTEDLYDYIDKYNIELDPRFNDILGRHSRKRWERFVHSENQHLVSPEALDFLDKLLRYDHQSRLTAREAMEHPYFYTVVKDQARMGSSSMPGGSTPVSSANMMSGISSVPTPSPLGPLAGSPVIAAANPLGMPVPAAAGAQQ
Method: as §4, §5

[7] = system: MDA-MB-231 (breast carcinoma); experiment: MTT-based viability assay, MDA-MB-231; assay type: cell-based, human; settings: for IC50: Homo sapiens, read-out: IC50 [µM] MDA-MB-231
Method: as §1, §2, §3

[8] = system: mitochondria polarization; parameters: method as in PMID 15566294; settings: up to a 10 µM concentration; cited from earlier work
[9] = system: Jurkat cells; parameters: method as in PMID 15566294; settings: read-out: DC50 value, apoptosis of Jurkat cells; cited from earlier work
[10] = system: CCRF-CEM cells; experiment: mitochondrial membrane potential (ΔΨm) JC-1 assay, CCRF-CEM; assay type: cell-based, human; settings: 16 µM, 48 h
Method: The mitochondrial membrane potential was evaluated by flow cytometry using 5,5′,6,6′-tetrachloro-1,1′,3,3′-tetraethylbenzimidazolocarbocyanine iodide (JC-1; Sigma-Aldrich), as previously described.

[11] = system: hormone-sensitive human prostate cancer cell line LNCaP; parameters: method as in PMID 22698781; settings: cited from earlier work
[12] = system: MCF-7 cells; experiment: cell cycle progression by flow cytometry, MCF-7; assay type: cell-based, human; settings: 8 µM, 48 h; control 17%
Method: Additionally, we observed the prolongation of G2/M in MCF-7 treated with 1 at the highest concentration. […] 1 induced G2/M phase arrest in MCF-7 with the highest effect detected for the 16 µM concentration, manifested as 32% cells in that stage, whereas in the control, the percentage of G2/M cells was 22%.
(§6) CCRF-CEM and MCF-7 cells were cultured in 6-well plates and treated with the tested compounds for 48 h. After exposure to the compounds, the cells were collected, washed with cold PBS, and fixed in 70% ethanol at –20 °C for at least 24 h. Subsequently, the cells were washed in PBS and stained according to the procedure previously described by our group. The cellular DNA content was measured by flow cytometry using a BD Accuri C6 Plus flow cytometer (BD Biosciences, San Jose, CA, USA). The resulting DNA histograms were analyzed with BD Accuri C6 Plus software (San Diego, CA, USA) to assess the distribution of cells across different phases of the cell cycle.

[13] = system: CK2 in CCRF-CEM cells (Ser529 in NF-κB p65); experiment: PhosFlow analysis of NF-κB p65 Ser529 phosphorylation, CCRF-CEM; assay type: cell-based, human; settings: 16 µM, 24 h
Method: CCRF-CEM cells were prepared following the BD PhosFlow™ Protocol for Human PBMCs using NF-κB p65 (pS529)-PE (#558423), BD PhosFlow™ Perm Buffer III (#558050), Cytofix Fixation Buffer (#554655), and Stain Buffer FBS (#554656), all obtained from Becton Dickinson. Flow cytometric analysis was performed using a BD Accuri C6 Plus cytometer (Becton Dickinson) according to the manufacturer’s instructions.

[14] = system: CCRF-CEM cells; experiment: annexin V/propidium iodide apoptosis, flow cytometry, CCRF-CEM; assay type: cell-based, human; settings: 48 h, annexin V binding
Method: The results obtained for CCRF-CEM and MCF-7 are shown in Figure 3 and Figure 4, respectively. […] 1, 79.6% of cells were apoptotic.
CCRF-CEM cells were seeded in 24-well plates at a density of 2 × 10^5 cells/mL. The cells were treated with the tested compounds at concentrations of 8, 16, and 32 µM, followed by incubation for 48 h. After treatment, the cells were harvested and processed according to the previously described protocol. Flow cytometric measurements were conducted within 1 h of cell labeling. Viable, necrotic, early apoptotic, and late apoptotic cells were identified using a BD Accuri C6 Plus flow cytometer and analyzed with BD Accuri C6 Plus software, version 1.0.34.1 (BD Biosciences, San Jose, CA, USA).

[15] = system: CCRF-CEM cells; experiment: cell cycle progression by flow cytometry, CCRF-CEM; assay type: cell-based, human; settings: 16 µM, 48 h; control 33%
Method: Since CK2 and PIM kinases regulate cell cycle progression, their inhibition may alter the distribution of cells across different cell cycle phases. […] For control cells, the percentage of G2/M cells was 17%. In addition to those changes, we observed cells in the sub-G1 phase, which are apoptotic cells. Accumulation of cells in this phase reflects DNA degradation characteristic of apoptotic cells. The largest percentage of these cells, i.e., 32% was determined in 16 µM 1-treated cells (Figure 6a,b).
as §6

Compound: OCC1OC(n2cnc3c(Br)c(Br)c(Br)c(Br)c32)CC1O [K164, 1-(β-D-2′-deoxyribofuranosyl)-4,5,6,7-tetrabromo-1H-benzimidazole]
apoptotic cells, LNCaP [1]: 91.8%

IC50 ([3]; MTT): 75.3 ± 10.3 µM
IC50 [4]: 3.08 ± 0.07 µM
remaining activity at 2 µM [4]: 66.9 ± 1.1%
remaining activity at 5 µM [4]: 29.1 ± 0.1%
remaining activity at 20 µM [4]: 21.4 ± 0.2%
IC50 ([5]; MCF7, MTT, 48 h): 41.9 ± 8.37 µM
remaining activity at 2 µM [6]: 72.1 ± 3%
remaining activity at 5 µM [6]: 21.3 ± 1.9%
remaining activity at 20 µM [6]: 15.6 ± 0.3%
IC50 ([7]; MDA-MB-231, MTT, 48 h): > 200 µM
Compound: CC(O)CCn1cnc2c(Br)c(Br)c(Br)c(Br)c21 (stereo not drawn) [compound 4]
IC50 ([2]; MTT, non-cancerous cells): 132 ± 19.4 µM
SI (selectivity index) CCRF-CEM [3]: 1.75
SI (selectivity index) MCF-7 [5]: 3.15

inhibition of PIM-1 kinase (in words) [4]: inactive; also recorded: very weak
remaining activity at 2 µM [4]: 82.5 ± 4.2%
remaining activity at 5 µM [4]: 67.4 ± 0.7%
remaining activity at 20 µM [4]: 62.6 ± 0.8%
inhibition of CK2 kinase (in words) [6]: inactive; also recorded: very weak
remaining activity at 2 µM [6]: 102 ± 8.9%
remaining activity at 5 µM [6]: 89.2 ± 8.6%
remaining activity at 20 µM [6]: 82.8 ± 15.4%
Compound: CC(=O)CCn1cnc2c(Br)c(Br)c(Br)c(Br)c21 [compound 3, 4-(4,5,6,7-Tetrabromo-1H-benzimidazol-1-yl)butan-2-one]

Compound: CN(C)c1nc2c(Br)c(Br)c(Br)c(Br)c2[nH]1 [DMAT, 2-Dimethylamino-4,5,6,7-tetrabromo-1H-benzimidazole]
side effect on mitochondria polarization [8]: does not display any side effect on mitochondria polarization
DC50 [9]: 2.7 µM

Compound: Brc1c(Br)c(Br)c2[nH]nnc2c1Br [TBBt, 4,5,6,7-tetrabromo-1(2)H-benzotriazole]
DC50 [9]: 17 µM

Compound: Brc1c(Br)c(Br)c2[nH]cnc2c1Br [TBBi, 4,5,6,7-tetrabromo-1H-benzimidazole, reference compound]
IC50 [2]: 24.8 ± 0.9 µM
IC50 [3]: 17.6 ± 0.67 µM
CCRF-CEM cells with reduced ΔΨm [10]: 37%
LD50 against LNCaP [11]: ≈ 20 µM
IC50 [4]: 0.53 ± 0.04 µM
MCF-7 cells in the S phase [12]: 12%
p65-P-negative CCRF-CEM cells [13]: 28%
apoptotic CCRF-CEM cells ([14]; 8 µM): 16%
apoptotic CCRF-CEM cells ([14]; 16 µM): 44%
apoptotic CCRF-CEM cells ([14]; 32 µM): 95%
IC50 ([5]; MCF7, 48 h): 12.6 ± 2.72 µM
IC50 ([7]; MDA-MB-231, 48 h): 29.7 ± 2.23 µM
CCRF-CEM cells in the S phase [15]: 19%

IC50 ([3]; MTT): 58.2 ± 5.86 µM
IC50 [4]: 2.41 ± 0.29 µM
remaining activity at 2 µM [4]: 58 ± 2.4%
remaining activity at 5 µM [4]: 26.4 ± 1.7%
remaining activity at 20 µM [4]: 9.3 ± 0.3%
IC50 ([5]; MCF7, MTT, 48 h): 18.4 ± 0.41 µM
IC50 [6]: 11.1 ± 0.15 µM
remaining activity at 2 µM [6]: 70.9 ± 0.9%
remaining activity at 5 µM [6]: 41.8 ± 2.3%
remaining activity at 20 µM [6]: 20.1 ± 1.2%
IC50 ([7]; MDA-MB-231, MTT, 48 h): 28.2 ± 3.27 µM
Compound: CC(O)Cn1cnc2c(Br)c(Br)c(Br)c(Br)c21 (stereo not drawn) [compound 2, 1-(4,5,6,7-tetrabromo-1H-benzimidazol-1-yl)propan-2-ol]
IC50 ([2]; MTT, non-cancerous cells): 96.1 ± 4.76 µM
SI (selectivity index) CCRF-CEM [3]: 1.65
SI (selectivity index) MCF-7 [5]: 5.21
SI (selectivity index) MDA-MB-231 ([7]; IC50 for Vero/IC50 for cancer cells): 3.4

Compound: Ic1c(I)c(I)c2[nH]cnc2c1I [TIBI, 4,5,6,7-tetraiodo-1H-benzimidazole]
LD50 against LNCaP [11]: ≈ 20 µM
